In ChEMBL document CHEMBL1909046, “DrugMatrix in vitro pharmacology data”:
*1 amine or outer side, *2 acyl side, *3 side chain or, on linkers, in order; H or OH if unused. Where a SMILES comes first, the peptide text is derived from it. Bridges are numbered along the chain shown (N, C = ends). Roman numbers before positions name the chains, in order. [ ]: non-standard residue; d: D form. Actinocin(1to9) = Cc1c2oc3c(C)ccc(C(=O)[*:2])c3nc-2c(C(=O)[*:1])c(N)c1=O; NMeV = CN[C@H](C(=O)O)C(C)C; Sar = CNCC(=O)O

Legend:
[1] = biological target: Matrix metalloproteinase-9 (Homo sapiens, UniProt P14780); test: biochemical; type: cell-based;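 also: inhibition of isolated MMP-9 enzyme activity toward a synthetic peptide substrate, from the DrugMatrix protease screening panel; in other assays of this panel Not Active means under 50% inhibition at 10 µM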
[2] = DRUGMATRIX: Phosphodiesterase PDE4 enzyme inhibition (substrate: [3H]cAMP + cAMP); conditions: u-937; Not Active = under 50% inhibition at 10 µM
[3] = biological target: T1, Type-2 angiotensin II receptor (Homo sapiens, UniProt P50052); type: cell-based; conditions: cho-k1; also: in other assays of this panel Not Active means under 50% inhibition at 10 µM
T1 sequence (P50052 whole entry): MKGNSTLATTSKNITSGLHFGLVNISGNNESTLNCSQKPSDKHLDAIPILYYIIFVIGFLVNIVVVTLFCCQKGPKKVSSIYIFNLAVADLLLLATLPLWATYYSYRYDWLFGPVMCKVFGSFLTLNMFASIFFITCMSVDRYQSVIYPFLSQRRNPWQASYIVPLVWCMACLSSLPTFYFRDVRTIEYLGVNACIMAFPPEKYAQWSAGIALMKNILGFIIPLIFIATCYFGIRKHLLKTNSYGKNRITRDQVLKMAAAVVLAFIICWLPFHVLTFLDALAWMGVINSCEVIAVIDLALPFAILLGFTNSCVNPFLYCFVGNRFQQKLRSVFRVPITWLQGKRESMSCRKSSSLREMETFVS

[4] = biological target: Voltage-gated inwardly rectifying potassium channel KCNH2 (Homo sapiens, UniProt Q12809); conditions: hek293; also: in other assays of this panel Not Active means under 50% inhibition at 10 µM
Cathepsin G = biological target: T2, Cathepsin G (Homo sapiens, UniProt P08311); type: tissue-based; conditions: neutrophil;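 also: inhibition of Cathepsin G enzyme activity, tested on an AMC-conjugated peptide substrate; in other assays of this panel Not Active means under 50% inhibition at 10 µM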
T2 sequence (P08311 whole entry): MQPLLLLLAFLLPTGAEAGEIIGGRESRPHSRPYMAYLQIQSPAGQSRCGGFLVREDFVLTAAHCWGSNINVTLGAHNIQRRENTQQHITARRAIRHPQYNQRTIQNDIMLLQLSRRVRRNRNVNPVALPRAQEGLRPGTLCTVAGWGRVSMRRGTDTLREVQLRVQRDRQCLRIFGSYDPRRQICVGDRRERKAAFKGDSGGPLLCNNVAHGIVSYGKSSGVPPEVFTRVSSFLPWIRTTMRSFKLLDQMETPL

Glycine receptor = Glycine receptor (Rattus norvegicus, UniProt P22771+P24524+P07727+P20781); type: cell membranes, Wistar, Spinal cord, Membrane; also: in other assays of this panel Not Active means under 50% inhibition at 10 µM
Cytochrome P450 3A4 = Cytochrome P450 3A4 (Homo sapiens, UniProt P08684); conditions: bti-tn-5b1-4; also: in other assays of this panel Not Active means under 50% inhibition at 10 µM
[5] = biological target: Protein phosphatase 3 catalytic subunit alpha (Homo sapiens, UniProt Q08209); parameters: species or system Escherichia coli

Chain of Cytochrome P450 3A4 (P08684 whole entry): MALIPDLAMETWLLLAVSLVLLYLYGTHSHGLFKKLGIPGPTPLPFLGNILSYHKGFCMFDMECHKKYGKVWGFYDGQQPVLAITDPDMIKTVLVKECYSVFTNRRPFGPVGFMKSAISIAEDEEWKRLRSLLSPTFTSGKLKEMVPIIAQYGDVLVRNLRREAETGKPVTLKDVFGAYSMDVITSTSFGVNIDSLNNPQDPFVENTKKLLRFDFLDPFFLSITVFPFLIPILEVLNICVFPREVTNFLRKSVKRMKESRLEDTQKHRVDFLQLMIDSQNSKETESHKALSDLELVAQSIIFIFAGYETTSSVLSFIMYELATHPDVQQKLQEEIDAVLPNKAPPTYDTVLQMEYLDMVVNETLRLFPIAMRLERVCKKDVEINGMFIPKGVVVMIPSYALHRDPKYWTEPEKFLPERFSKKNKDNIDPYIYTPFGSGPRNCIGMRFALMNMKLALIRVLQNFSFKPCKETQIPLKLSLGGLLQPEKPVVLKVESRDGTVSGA
Chain of Matrix metalloproteinase-9 (P14780 whole entry): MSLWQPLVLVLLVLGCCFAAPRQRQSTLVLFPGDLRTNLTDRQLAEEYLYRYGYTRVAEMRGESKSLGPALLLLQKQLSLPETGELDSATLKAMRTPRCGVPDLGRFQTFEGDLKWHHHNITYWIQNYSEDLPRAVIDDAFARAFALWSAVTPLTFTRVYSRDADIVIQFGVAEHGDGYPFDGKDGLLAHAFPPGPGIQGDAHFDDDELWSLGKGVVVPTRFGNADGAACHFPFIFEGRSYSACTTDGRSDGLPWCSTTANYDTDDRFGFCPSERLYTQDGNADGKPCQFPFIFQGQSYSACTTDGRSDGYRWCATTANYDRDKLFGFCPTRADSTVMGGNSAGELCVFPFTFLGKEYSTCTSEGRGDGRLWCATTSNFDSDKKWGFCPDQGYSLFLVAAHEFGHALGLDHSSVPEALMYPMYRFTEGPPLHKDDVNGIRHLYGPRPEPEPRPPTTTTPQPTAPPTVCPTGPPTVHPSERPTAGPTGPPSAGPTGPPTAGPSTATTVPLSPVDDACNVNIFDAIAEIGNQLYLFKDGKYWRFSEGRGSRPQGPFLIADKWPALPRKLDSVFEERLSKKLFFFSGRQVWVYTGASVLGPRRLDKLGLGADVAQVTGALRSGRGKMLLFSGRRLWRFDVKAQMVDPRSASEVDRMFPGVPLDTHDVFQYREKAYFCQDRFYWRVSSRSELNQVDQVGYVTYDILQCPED
Chain of Voltage-gated inwardly rectifying potassium channel KCNH2 (Q12809 whole entry): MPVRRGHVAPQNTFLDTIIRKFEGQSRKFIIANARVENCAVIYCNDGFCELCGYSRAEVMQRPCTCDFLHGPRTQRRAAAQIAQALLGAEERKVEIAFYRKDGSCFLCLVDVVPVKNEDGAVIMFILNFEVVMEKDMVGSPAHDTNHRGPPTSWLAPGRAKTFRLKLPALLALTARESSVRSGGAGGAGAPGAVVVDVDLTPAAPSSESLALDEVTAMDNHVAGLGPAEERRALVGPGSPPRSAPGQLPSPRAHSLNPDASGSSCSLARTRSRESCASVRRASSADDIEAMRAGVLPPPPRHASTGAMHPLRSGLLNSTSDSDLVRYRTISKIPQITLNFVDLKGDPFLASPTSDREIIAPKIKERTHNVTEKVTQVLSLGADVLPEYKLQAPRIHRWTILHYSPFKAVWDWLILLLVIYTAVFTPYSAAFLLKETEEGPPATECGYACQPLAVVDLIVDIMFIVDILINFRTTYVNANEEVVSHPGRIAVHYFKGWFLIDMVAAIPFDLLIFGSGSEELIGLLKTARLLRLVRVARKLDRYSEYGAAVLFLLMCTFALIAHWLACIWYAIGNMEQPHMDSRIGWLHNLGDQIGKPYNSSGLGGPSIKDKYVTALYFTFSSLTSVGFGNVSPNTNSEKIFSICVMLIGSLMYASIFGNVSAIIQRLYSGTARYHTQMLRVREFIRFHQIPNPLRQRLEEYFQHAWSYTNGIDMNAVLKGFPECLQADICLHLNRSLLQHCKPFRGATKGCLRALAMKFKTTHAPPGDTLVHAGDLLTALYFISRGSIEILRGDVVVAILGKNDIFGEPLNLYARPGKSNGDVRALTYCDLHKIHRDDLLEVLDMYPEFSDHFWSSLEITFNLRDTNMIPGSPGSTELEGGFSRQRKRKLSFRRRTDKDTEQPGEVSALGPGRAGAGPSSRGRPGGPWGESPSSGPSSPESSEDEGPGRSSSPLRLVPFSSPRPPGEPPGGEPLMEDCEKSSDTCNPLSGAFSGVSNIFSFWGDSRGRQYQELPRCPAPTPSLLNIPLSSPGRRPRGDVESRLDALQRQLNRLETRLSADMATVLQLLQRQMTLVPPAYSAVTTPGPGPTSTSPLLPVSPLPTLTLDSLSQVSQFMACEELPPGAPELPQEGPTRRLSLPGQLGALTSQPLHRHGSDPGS

CC1CC(OC(=O)C(O)c2ccccc2)CC(C)(C)C1 (configuration not stated) [CYCLANDELATE]
Not Active: IC50 [1] | IC50 [2] | Ki [2] | IC50 [3] | IC50 [4] | Ki [4] | IC50 (Cathepsin G) | IC50 (Glycine receptor) | IC50 (Cytochrome P450 3A4) | Ki (Cytochrome P450 3A4) | IC50 [5]

Cc1c2oc3c(C)ccc(C(=O)N[C@@H]4C(=O)N[C@H](C(C)C)C(=O)N5CCC[C@H]5C(=O)N(C)CC(=O)N(C)[C@@H](C(C)C)C(=O)O[C@@H]4C)c3nc-2c(C(=O)N[C@@H]2C(=O)N[C@H](C(C)C)C(=O)N3CCC[C@H]3C(=O)N(C)CC(=O)N(C)[C@@H](C(C)C)C(=O)O[C@@H]2C)c(N)c1=O [DACTINOMYCIN] (I: T[dV]P[Sar][NMeV] / II: T[dV]P[Sar][NMeV]; ester I:1-I:C, II:1-II:C; linker I:N-II:N via Actinocin(1to9))
Not Active: IC50 [1] | IC50 [2] | Ki [2] | IC50 [3] | IC50 [4] | Ki [4] | IC50 (Cathepsin G) | IC50 (Glycine receptor) | IC50 (Cytochrome P450 3A4) | Ki (Cytochrome P450 3A4) | IC50 [5]

Cc1c(O)c(=O)ccn1C [DEFERIPRONE]
Not Active: IC50 [1] | IC50 [2] | Ki [2] | IC50 [3] | IC50 [4] | Ki [4] | IC50 (Cathepsin G) | IC50 (Glycine receptor) | IC50 (Cytochrome P450 3A4) | Ki (Cytochrome P450 3A4) | IC50 [5]

O=c1oc2ccccc2c(O)c1Cc1c(O)c2ccccc2oc1=O [DICUMAROL]
Not Active: IC50 [1] | IC50 [2] | Ki [2] | IC50 [3] | IC50 [4] | Ki [4] | IC50 (Cathepsin G) | IC50 (Glycine receptor) | IC50 (Cytochrome P450 3A4) | Ki (Cytochrome P450 3A4) | IC50 [5]

C[C@H]1O[C@@H](O[C@H]2[C@@H](O)C[C@H](O[C@H]3[C@@H](O)C[C@H](O[C@H]4CC[C@@]5(C)[C@H](CC[C@@H]6[C@@H]5C[C@@H](O)[C@]5(C)[C@@H](C7=CC(=O)OC7)CC[C@]65O)C4)O[C@@H]3C)O[C@@H]2C)C[C@H](O)[C@@H]1O [DIGOXIN]
Not Active: IC50 [1] | IC50 [2] | Ki [2] | IC50 [3] | IC50 [4] | Ki [4] | IC50 (Cathepsin G) | IC50 (Glycine receptor) | IC50 (Cytochrome P450 3A4) | Ki (Cytochrome P450 3A4) | IC50 [5]

C[C@H]1c2cccc(O)c2C(=O)C2=C(O)[C@]3(O)C(=O)C(C(N)=O)=C(O)[C@@H](N(C)C)[C@@H]3[C@@H](O)[C@@H]21.O [DOXYCYCLINE]
Not Active: IC50 [1] | IC50 [2] | Ki [2] | IC50 [3] | IC50 [4] | Ki [4] | IC50 (Cathepsin G) | IC50 (Glycine receptor) | IC50 (Cytochrome P450 3A4) | Ki (Cytochrome P450 3A4) | IC50 [5]

OC(Cn1cncn1)(Cn1cncn1)c1ccc(F)cc1F [FLUCONAZOLE]
Not Active: IC50 [1] | IC50 [2] | Ki [2] | IC50 [3] | IC50 [4] | Ki [4] | IC50 (Cathepsin G) | IC50 (Glycine receptor) | IC50 (Cytochrome P450 3A4) | Ki (Cytochrome P450 3A4) | IC50 [5]

CC(C)C(=O)Nc1ccc([N+](=O)[O-])c(C(F)(F)F)c1 [FLUTAMIDE]
Not Active: IC50 [1] | IC50 [2] | Ki [2] | IC50 [3] | IC50 [4] | Ki [4] | IC50 (Cathepsin G) | IC50 (Glycine receptor) | IC50 (Cytochrome P450 3A4) | Ki (Cytochrome P450 3A4) | IC50 [5]

CC1(C)O[C@@H]2C[C@H]3[C@@H]4CCC5=CC(=O)CC[C@]5(C)[C@@]4(F)[C@@H](O)C[C@]3(C)[C@]2(C(=O)CCl)O1 [HALCINONIDE]
Not Active: IC50 [1] | IC50 [2] | Ki [2] | IC50 [3] | IC50 [4] | Ki [4] | IC50 (Cathepsin G) | IC50 (Glycine receptor) | IC50 (Cytochrome P450 3A4) | Ki (Cytochrome P450 3A4) | IC50 [5]

O=c1[nH]c(=O)n([C@H]2C[C@H](O)[C@@H](CO)O2)cc1I [IDOXURIDINE]
Not Active: IC50 [1] | IC50 [2] | Ki [2] | IC50 [3] | IC50 [4] | Ki [4] | IC50 (Cathepsin G) | IC50 (Glycine receptor) | IC50 (Cytochrome P450 3A4) | Ki (Cytochrome P450 3A4) | IC50 [5]

CC1Cc2ccccc2N1NC(=O)c1ccc(Cl)c(S(N)(=O)=O)c1 (configuration not stated) [INDAPAMIDE]
Not Active: IC50 [1] | IC50 [2] | Ki [2] | IC50 [3] | IC50 [4] | Ki [4] | IC50 (Cathepsin G) | IC50 (Glycine receptor) | IC50 (Cytochrome P450 3A4) | Ki (Cytochrome P450 3A4) | IC50 [5]

Nc1nc(N)nc(-c2cc(Cl)ccc2Cl)n1.O=C(O)/C=C\C(=O)O [IRSOGLADINE MALEATE]
Not Active: IC50 [1] | IC50 [2] | Ki [2] | IC50 [3] | IC50 [4] | Ki [4] | IC50 (Cathepsin G) | IC50 (Glycine receptor) | IC50 (Cytochrome P450 3A4) | Ki (Cytochrome P450 3A4) | IC50 [5]

CCCCN1CCCC[C@H]1C(=O)Nc1c(C)cccc1C [LEVOBUPIVACAINE]
Not Active: IC50 [1] | IC50 [2] | Ki [2] | IC50 [3] | IC50 [4] | Ki [4] | IC50 (Cathepsin G) | IC50 (Glycine receptor) | IC50 (Cytochrome P450 3A4) | Ki (Cytochrome P450 3A4) | IC50 [5]

CCCCc1nc(Cl)c(CO)n1Cc1ccc(-c2ccccc2-c2nnn[nH]2)cc1 [LOSARTAN]
Not Active: IC50 [1] | IC50 [2] | Ki [2] | IC50 [3] | IC50 [4] | Ki [4] | IC50 (Cathepsin G) | IC50 (Glycine receptor) | IC50 (Cytochrome P450 3A4) | Ki (Cytochrome P450 3A4) | IC50 [5]

Sc1ncnc2nc[nH]c12 [MERCAPTOPURINE ANHYDROUS]
Not Active: IC50 [1] | IC50 [2] | Ki [2] | IC50 [3] | IC50 [4] | Ki [4] | IC50 (Cathepsin G) | IC50 (Glycine receptor) | IC50 (Cytochrome P450 3A4) | Ki (Cytochrome P450 3A4) | IC50 [5]

C[C@](N)(Cc1ccc(O)c(O)c1)C(=O)O [METHYLDOPA]
Not Active: IC50 [1] | IC50 [2] | Ki [2] | IC50 [3] | IC50 [4] | Ki [4] | IC50 (Cathepsin G) | IC50 (Glycine receptor) | IC50 (Cytochrome P450 3A4) | Ki (Cytochrome P450 3A4) | IC50 [5]

C[C@]12CCC(=O)C=C1CC[C@@H]1[C@@H]2CC[C@@]2(C)[C@H]1CC[C@]2(C)O [METHYLTESTOSTERONE]
Not Active: IC50 [1] | IC50 [2] | Ki [2] | IC50 [3] | IC50 [4] | Ki [4] | IC50 (Cathepsin G) | IC50 (Glycine receptor) | IC50 (Cytochrome P450 3A4) | Ki (Cytochrome P450 3A4) | IC50 [5]

Cc1ccccc1N1C(=O)c2cc(S(N)(=O)=O)c(Cl)cc2NC1C (configuration not stated) [METOLAZONE]
Not Active: IC50 [1] | IC50 [2] | Ki [2] | IC50 [3] | IC50 [4] | Ki [4] | IC50 (Cathepsin G) | IC50 (Glycine receptor) | IC50 (Cytochrome P450 3A4) | Ki (Cytochrome P450 3A4) | IC50 [5]

COCCc1ccc(OCC(O)CNC(C)C)cc1 (configuration not stated) [METOPROLOL]
Not Active: IC50 [1] | IC50 [2] | Ki [2] | IC50 [3] | IC50 [4] | Ki [4] | IC50 (Cathepsin G) | IC50 (Glycine receptor) | IC50 (Cytochrome P450 3A4) | Ki (Cytochrome P450 3A4) | IC50 [5]

CCn1cc(C(=O)O)c(=O)c2cc(F)c(N3CCNCC3)cc21 [NORFLOXACIN]
Not Active: IC50 [1] | IC50 [2] | Ki [2] | IC50 [3] | IC50 [4] | Ki [4] | IC50 (Cathepsin G) | IC50 (Glycine receptor) | IC50 (Cytochrome P450 3A4) | Ki (Cytochrome P450 3A4) | IC50 [5]

NC1=NC(=O)C(c2ccccc2)O1 (configuration not stated) [PEMOLINE]
Not Active: IC50 [1] | IC50 [2] | Ki [2] | IC50 [3] | IC50 [4] | Ki [4] | IC50 (Cathepsin G) | IC50 (Glycine receptor) | IC50 (Cytochrome P450 3A4) | Ki (Cytochrome P450 3A4) | IC50 [5]

Nc1nc2c(ncn2CCC(CO)CO)c(=O)[nH]1 [PENCICLOVIR]
Not Active: IC50 [1] | IC50 [2] | Ki [2] | IC50 [3] | IC50 [4] | Ki [4] | IC50 (Cathepsin G) | IC50 (Glycine receptor) | IC50 (Cytochrome P450 3A4) | Ki (Cytochrome P450 3A4) | IC50 [5]
